In ChEMBL document CHEMBL5338706, “Discovery of a potent and selective proteolysis targeting chimera (PROTAC) degrader of NSD3 histone methyltransferase” (Eur J Med Chem, 2022):
Activity calls are given as the source filed them. The calls are words filed in the database; no cut-off is given here.

Key:
[1] = molecular target: T1, Histone-lysine N-methyltransferase NSD3 (Homo sapiens) (UniProt Q9BZ95); experiment: Induction of NSD3 degradation in human NCI-H1703 cells at 5 uM measured after 48 hrs by Western blot analysis relative to control; assay type: cell-based
T1 sequence (whole entry): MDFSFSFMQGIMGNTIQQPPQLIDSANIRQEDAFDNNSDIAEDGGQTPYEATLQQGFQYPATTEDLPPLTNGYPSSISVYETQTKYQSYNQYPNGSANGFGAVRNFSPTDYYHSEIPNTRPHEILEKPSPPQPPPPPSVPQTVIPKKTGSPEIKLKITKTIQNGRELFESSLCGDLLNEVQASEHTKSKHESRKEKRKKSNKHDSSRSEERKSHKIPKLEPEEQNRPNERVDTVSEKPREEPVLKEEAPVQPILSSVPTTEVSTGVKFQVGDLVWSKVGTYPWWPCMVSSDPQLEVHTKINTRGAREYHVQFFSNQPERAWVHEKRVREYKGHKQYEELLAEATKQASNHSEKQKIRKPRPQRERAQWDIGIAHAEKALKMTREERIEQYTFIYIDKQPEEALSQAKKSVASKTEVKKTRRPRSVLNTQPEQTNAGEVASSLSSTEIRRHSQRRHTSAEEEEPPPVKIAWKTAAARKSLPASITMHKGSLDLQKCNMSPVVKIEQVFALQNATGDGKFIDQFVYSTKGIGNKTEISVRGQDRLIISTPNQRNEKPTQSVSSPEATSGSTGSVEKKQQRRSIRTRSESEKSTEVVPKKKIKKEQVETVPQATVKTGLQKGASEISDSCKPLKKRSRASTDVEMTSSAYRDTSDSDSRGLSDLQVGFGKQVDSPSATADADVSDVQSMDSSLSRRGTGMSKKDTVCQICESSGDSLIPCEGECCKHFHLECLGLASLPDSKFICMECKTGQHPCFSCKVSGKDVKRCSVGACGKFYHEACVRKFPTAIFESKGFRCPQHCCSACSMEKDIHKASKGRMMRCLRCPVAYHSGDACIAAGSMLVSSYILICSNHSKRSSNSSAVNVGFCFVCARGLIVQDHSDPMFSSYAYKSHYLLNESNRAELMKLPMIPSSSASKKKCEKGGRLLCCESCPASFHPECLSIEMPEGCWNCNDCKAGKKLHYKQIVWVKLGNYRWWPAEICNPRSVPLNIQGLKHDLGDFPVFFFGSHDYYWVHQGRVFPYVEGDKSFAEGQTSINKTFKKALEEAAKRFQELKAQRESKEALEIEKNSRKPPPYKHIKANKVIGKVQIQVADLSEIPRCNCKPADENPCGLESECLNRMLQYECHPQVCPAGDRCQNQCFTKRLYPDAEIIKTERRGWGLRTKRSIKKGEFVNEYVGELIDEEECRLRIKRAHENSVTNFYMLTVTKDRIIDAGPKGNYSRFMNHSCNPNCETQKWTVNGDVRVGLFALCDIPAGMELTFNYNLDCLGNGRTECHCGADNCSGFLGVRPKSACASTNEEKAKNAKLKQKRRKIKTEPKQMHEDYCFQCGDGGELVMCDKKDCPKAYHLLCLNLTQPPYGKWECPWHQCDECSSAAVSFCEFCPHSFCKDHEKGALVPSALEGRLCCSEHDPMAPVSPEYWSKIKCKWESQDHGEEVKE

[2] = molecular target: T1, Histone-lysine N-methyltransferase NSD3 (Homo sapiens); experiment: Induction of NSD3 degradation in human A549 cells assessed as reduction of NSD3 protein at 7.5 measured after 48 hrs by Western blot analysis; assay type: cell-based
[3] = tested on: NCI-H1703; experiment: Downregulation of IGFBP3 in human NCI-H1703 cells at […] measured after 72 hrs by RNA sequencing assay; assay type: functional, cell-based; settings: dose 7.5 µM
[4] = tested on: NCI-H1703; experiment: Downregulation of CyclinD1 level in human NCI-H1703 cells at 3 to […] by Western blot analysis; assay type: functional, cell-based; settings: dose 3-7.5 µM
[5] = tested on: NCI-H1703; experiment: Downregulation of c-Myc level in human NCI-H1703 cells at 3 to […] by Western blot analysis; assay type: functional, cell-based; settings: dose 3-7.5 µM
[6] = tested on: NCI-H1703; experiment: Induction of apoptosis in human NCI-H1703 cells assessed as late apoptotic cells at 3 uM measured after 72 hrs by PI/Annexin-V staining based flow cytometry analysis (reference value: 3.00% ); assay type: functional
[7] = tested on: NCI-H1703; experiment: Induction of apoptosis in human NCI-H1703 cells assessed as necrotic cells at 5 uM measured after 72 hrs by PI/Annexin-V staining based flow cytometry analysis (reference value: 2.80% ); assay type: functional
[8] = Inhibition of clone formation in human NCI-H1703 cells at 3 uM incubated for 10 days with media replenishment for every 5 days by crystal violet staining based analysis relative to control; assay type: functional; settings: NCI-H1703, 240 h, time 10 day
[9] = Downregulation of Cyclin D1 level in human NCI-H1703 cells at 5 uM by measuring fold change by Western blot analysis relative to control; assay type: functional
[10] = Downregulation of CDC25A level in human NCI-H520 cells at 5 uM by measuring fold change by Western blot analysis relative to control; assay type: functional

Activity [1]: 60%
Activity [2]: Active
SMILES: Cc1cc(CNCCCCCCCCCCC(=O)N[C@H](C(=O)N2C[C@H](O)C[C@H]2C(=O)N[C@@H](C)c2ccc(-c3scnc3C)cc2)C(C)(C)C)cc(C)c1-c1ncn(C)c1-c1ccnc2cc(F)ccc12
Activity [3]: Active
Activity [4]: Active
Activity [5]: Active
Activity [6]: 3%
Activity [7]: 7.21%
inhibition at 3 µM [8]: 100%
fold change (FC) [9]: 0.69
fold change (FC) [10]: 0.93
